Source: patent US10907212B2, “Inhibitors of cell adhesion” (Regents of the University of Minnesota, priority 2016, dated 2021)
Entries after “also recorded” stand apart in the source; their conditions may differ. Where no end group is shown, it is not given here.

Columns and labels:
[1] = tested on: NIH:OVCAR5 control shRNA and NIH:OVCAR5-VB3 cells; experiment: Spheroid formation of cells pretreated with mitomycin C; format: cell-based, human; details: data not shown
Experimental: (§1) Spheroids were formed from the NIH:OVCAR5 cell lines described above using the liquid overlay method. One milliliter of a single cell suspension was seeded at a concentration of 50,000 cells/ml in OptiMEM® media, into 24-well tissue culture plates coated with 0.5% Seakem agarose (in complete RPMI-1640). Plates were incubated at 37° C. in a humidified incubator with 5% CO2. At various time points up to 5 days, the plates were removed from the incubator and the spheroids were photographed with a Nikon CoolPix digital camera mounted on an Olympus CK2 inverted microscope with a 4× objective. The size of the spheroids was determined using the measure tool in Adobe Photoshop. The largest spheroids were quantified (20-90 spheroids/well), in a minimum of 8 wells, for a total of >300 spheroids per cell type.
Ovarian cancer is unique in that tumor cells commonly grow within the peritoneal cavity as free floating multi-cellular aggregates (spheroids) in the ascites fluid. […] Spheroids formed by both cell types appeared tightly aggregated, in contrast to previous results with the cell adhesion molecule claudin-4, where cells depleted of claudin-4 formed spheroids more slowly and the spheroids formed had increased paracellular permeability. […]

[2] = tested on: adhesion of NIH:OVCAR5-N4-over cells to recombinant human Nectin-1 extracellular domain; experiment: Inhibition of NIH:OVCAR5-N4-over cell adhesion to recombinant Nectin-1 by synthetic nectin peptides; format: cell-based; details: 150 μg/ml peptide; 0.5 μg/well Nectin-1; 30 min adhesion; listed as N1-P20
Experimental: Black, clear-bottom 96-well microtiter plates (Corning, Imported Costar, Corning, N.Y.) were coated with recombinant human Nectin-1 extracellular domain (R&D Systems), recombinant human Nectin-4 extracellular domain (R&D Systems), mouse laminin (Invitrogen™), or bovine serum albumin (BSA; Probumin Diagnostic Grade, MilliPore) diluted in PBS. Covered plates were incubated overnight at 37° C. in a humidified incubator. After washing with PBS plus Ca^2+/Mg^2+ containing 2 mg/ml ovalbumin (Sigma-Aldrich), the plates were blocked for 1 hat 37° C. with 1% BSA in PBS without Ca^2+/Mg^2+. Confluent monolayers of NIH:OVCAR5 cells or NIH:OVCAR5-N4-over cells were detached with Accutase, and then filtered through a 40 μm cell strainer (BD Biosciences, San Jose, Calif.) to remove cell aggregates. The single cells were stained with CellTracker Green CMFDA (5-chloromethylfluorescein diacetate; Invitrogen™) according to the manufacturer's protocol. […] Plates were vigorously washed four times and read in a BioTek Synergy fluorescent microplate reader (BioTek, Winooski, V A). […]
Microtiter plates coated with recombinant Nectin-1 as described above were pre-incubated for 30 min at room temperature with 150 μg/ml Nectin-4 peptides in PBS in triplicate. CMFDA-stained NIH:OVCAR5-N4-over cells were then added to the wells and cell adhesion was quantified as described above. […]

[3] = tested on: nectin 4 protein on NIH:OVCAR-5 cells; experiment: Effect of peptides on anti-Nectin-4 antibody binding to cells as determined by flow cytometry; format: cell-based, human; details: for IgG MFI: IgG control primary antibody; for nectin-4 antibody binding compared to untreated control cells (in words): flow cytometry; for Flow binding: summary table, Nectin-4 antibody binding relative to control = 100
Experimental: Confluent monolayers of cells were detached from 75 cm^2 tissue culture flasks using Accutase cell dissociation buffer (Innovative Cell Technologies, San Diego, Calif.), washed, and labeled with mouse IgG or mAbs against Nectin-4 or Nectin-1 (2.5 μg/10^6 cells) in Flow Buffer [phosphate buffered saline (PBS) containing 2.5% newborn calf serum and 0.02% sodium azide] for 30 min at 4° C.. Cells were washed and incubated with goat anti-mouse IgG F(ab′)2 (Jackson ImmunoResearch, West Grove, Pa.), then washed again and incubated with streptavidin-allophycocyanin conjugate (Jackson ImmunoResearch, West Grove, Pa.) for 30 min each. Cells were washed and fixed in Flow Buffer containing 1% formaldehyde and analyzed in the University of Minnesota Flow Cytometry Resource with a BD Accuri™ C6 flow cytometer (BD Biosciences, San Jose, Calif.) using the Accuri™ software.
Briefly, NIH:OVCAR-5 cells that natively express a moderate amount of nectin 4 protein were incubated for 30 minutes in 150 μg/mL of soluble peptide in DMSO. After incubation, the cells were washed, and then triple antibody stained using mouse anti-nectin 4 (or IgG control) primary antibody, biotinylated goat anti-mouse secondary antibody, and streptavidin APC tertiary antibody. Finally, utilizing the University of Minnesota flow core's Accuri C6 flow cytometer, the relative antibody binding affinity for control and peptide-treated samples was quantitated and compared. Data was collected for each of the 57 peptides generated.

[4] = tested on: ovarian cancer cell aggregation and spheroid formation; experiment: Spheroid assay for peptides (visual scale +1 to +5); format: cell-based, human; details: visual scale of +1 to +5; for Spheroid-24: 24 hrs, Control = 2; for Spheroid-48: 48 hrs, Control = 4
Experimental: as §1
The clinical relevance is that by blocking the formation of spheroids, the cells will be more sensitive to chemotherapy (which targets the single cells that proliferate more rapidly than spheroids).
The spheroid assay for peptides 1-30 were scored using a visual scale of +1 to +5. The controls were scored at +2 (24 hrs) and +4 (48 hrs). […] It may be harder to visually assess the size at 24 hours, since the spheroids are relatively small, but and perhaps some of the peptides are affecting cell division, and that is why the spheroids are smaller than the controls at 48 hours, but not 24 hrs (this can be easily assayed with an MTT assay).

[5] = Run One, 150 μg/mL peptide, 30 minutes, Control 1 = 15,015
[6] = Run One, 150 μg/mL peptide, 30 minutes, Control 1 = 1,670
[7] = Run One, antibody binding relative to Control 1 = 100.00
[8] = Run Two, 150 μg/mL peptide, 30 minutes, Control 2 = 49,491
[9] = Run Two, antibody binding relative to Control 2 = 100.00

With `CO[C@@]12[C@H](COC(N)=O)C3=C(C(=O)C(C)=C(N)C3=O)N1C[C@@H]1N[C@@H]12` [mitomycin C] the “aggregation of cells in presence of mitomycin C” value ([1]; NIH:OVCAR5-VB3 cells with Nectin-4 knocked down by shRNA) was “No difference was observed” and the “spheroid size versus untreated control cells” value ([1]; shRNA control NIH:OVCAR5 cells, after 24 h) was “smaller than the untreated control cells”.
In the case of “NWYLQRMDVKLTCK-NH2 (listed as Homo sapiens) [Peptide 49]”, the “effect on cell adhesion to Nectin-1 (in words)” value [2] is reported as “to a greater extent than the mAb against Nectin-1; also recorded: complete inhibition”, the “N4 MFI/IgG MFI” value ([3]; Run Four, Control 4 = 9.387504873) is reported as 10.36 and the “IgG MFI” value ([3]; Run Four, Control 4 = 1,026) is reported as 29486. The “nectin-4 antibody binding, percent of control” value ([3]; Run Four, antibody binding relative to Control 4 = 100) was 3206 and the “nectin-4 antibody binding compared to untreated control cells (in words)” value ([3]; 150 μg/mL peptide) was “erroneous/outlier”.
In the case of “TCVVSHPGLLQDQR-NH2 (listed as Homo sapiens) [Peptide 17]”, the Spheroid-24 [4] is reported as 1, the Spheroid-48 [4] is reported as 2 and the “N4 MFI” value [3, 5] is reported as 20,511. For the same compound, the “IgG MFI” value [3, 6] was 8,686, the “N4 MFI/IgG MFI” value ([3]; Run One, Control 1 = 8.99) was 2.36 and the “nectin-4 antibody binding, percent of control” value [3, 7] was 88.61.
“TGNGIYINGRGHLV-NH2 (listed as Homo sapiens) [Peptide 29]” was tested, and the Spheroid-24 [4] was 3, the “N4 MFI” value [3, 8] was 18,643 and the “N4 MFI/IgG MFI” value ([3]; Run Two, Control 2 = 9.46) was 6.04. For the same compound, the “IgG MFI” value ([3]; Run Two, Control 2 = 5,233) was 3,087, the “nectin-4 antibody binding, percent of control” value [3, 9] was 35.15 and the “nectin-4 antibody binding compared to untreated control cells (in words)” value ([3]; 150 μg/mL peptide) was “reduction in nectin-4 antibody binding”. For the same compound, the Flow binding [3] was 35%.
“TTEHSGIYVCHVSN-NH2 (listed as Homo sapiens) [Peptide 24]” was tested, and the Spheroid-48 [4] was 3, the “N4 MFI” value [3, 8] was 33,353 and the “N4 MFI/IgG MFI” value ([3]; Run Two, Control 2 = 9.46) was 8.76. For the same compound, the “IgG MFI” value ([3]; Run Two, Control 2 = 5,233) was 3,808 and the “nectin-4 antibody binding, percent of control” value [3, 9] was 66.76.
For “VDVLDPQEDSGKQV-NH2 (listed as Homo sapiens) [Peptide 26]”, the Spheroid-24 [4] was 1, the Spheroid-48 [4] was 2 and the “N4 MFI” value [3, 8] was 35,299. For the same compound, the “N4 MFI/IgG MFI” value ([3]; Run Two, Control 2 = 9.46) was 8.92, the “IgG MFI” value ([3]; Run Two, Control 2 = 5,233) was 3,956 and the “nectin-4 antibody binding, percent of control” value [3, 9] was 70.82.
With “VSPAYEGRVEQPPP-NH2 (listed as Homo sapiens) [Peptide 6]” the Spheroid-24 [4] was 1, the Spheroid-48 [4] was 2 and the “N4 MFI” value [3, 5] was 12,682. The “IgG MFI” value [3, 6] was 1,622, the “N4 MFI/IgG MFI” value ([3]; Run One, Control 1 = 8.99) was 7.82 and the “nectin-4 antibody binding, percent of control” value [3, 7] was 82.88.
“VVLGQDAKLPCFYR-NH2 (listed as Homo sapiens) [Peptide 2]” was tested, and the Spheroid-48 [4] was 3, the “N4 MFI” value [3, 5] was 11,895 and the “IgG MFI” value [3, 6] was 2,458. The “N4 MFI/IgG MFI” value ([3]; Run One, Control 1 = 8.99) was 4.84 and the “nectin-4 antibody binding, percent of control” value [3, 7] was 70.72.
For “WTRLDGPLPSGVRV-NH2 (listed as Homo sapiens) [Peptide 22]”, the Spheroid-24 [4] was 1, the Spheroid-48 [4] was 3 and the “N4 MFI” value [3, 8] was 70,336. For the same compound, the “N4 MFI/IgG MFI” value ([3]; Run Two, Control 2 = 9.46) was 9.82, the “IgG MFI” value ([3]; Run Two, Control 2 = 5,233) was 7,160 and the “nectin-4 antibody binding, percent of control” value [3, 9] was 142.74. For the same compound, the “nectin-4 antibody binding compared to untreated control cells (in words)” value ([3]; 150 μg/mL peptide) was “increased nectin-4 antibody binding” and the Flow binding [3] was 143%.
In the case of “WTRLDGPLPSGVRVDGDT-NH2 (listed as Homo sapiens) [Peptide 28]”, the Spheroid-48 [4] is reported as 2, the “N4 MFI” value [3, 8] is reported as 41,302 and the “N4 MFI/IgG MFI” value ([3]; Run Two, Control 2 = 9.46) is reported as 10.83. For the same compound, the “IgG MFI” value ([3]; Run Two, Control 2 = 5,233) was 3,815 and the “nectin-4 antibody binding, percent of control” value [3, 9] was 84.70.
In the case of “WTTLNGSLPKGVEAQNRT-NH2 (listed as Homo sapiens) [Peptide 57]”, the Spheroid-48 [4] is reported as 3, the “N4 MFI” value ([3]; Run Five, 150 μg/mL peptide, 30 minutes, Control 5 = 17,768.90) is reported as 14,705.92 and the “N4 MFI/IgG MFI” value ([3]; Run Five, Control 5 = 2.142155332) is reported as 1.874. The “IgG MFI” value ([3]; Run Five, Control 5 = 8,294.87) was 7,848.89, the “nectin-4 antibody binding, percent of control” value ([3]; Run Five, antibody binding relative to Control 5 = 100) was 72.38 and the “nectin-4 antibody binding compared to untreated control cells (in words)” value ([3]; 150 μg/mL peptide) was “reduction in nectin-4 antibody binding”.
With “YRGDSGEQVGQVAW-NH2 (listed as Homo sapiens) [Peptide 3]” the Spheroid-48 [4] was 2, the “N4 MFI” value [3, 5] was 6,987 and the “IgG MFI” value [3, 6] was 2,044. The “N4 MFI/IgG MFI” value ([3]; Run One, Control 1 = 8.99) was 3.42, the “nectin-4 antibody binding, percent of control” value [3, 7] was 37.04 and the “nectin-4 antibody binding compared to untreated control cells (in words)” value ([3]; 150 μg/mL peptide) was “reduction in nectin-4 antibody binding”. It also gave a Flow binding [3] of 37%.
